Measurements as given in patent publication US9708336B2, “Metallo-beta-lactamase inhibitors” (priority 2014, dated 2017).
Like-named read-outs stand apart in the source and are kept apart here.

Key:
[1] = target: NDM-1 (Klebsiella pneumoniae, UniProt C7C422); assay: biochemical; assay type: biochemical
[2] = tested on: Klebsiella pneumoniae expressing VIM-1 (IHMA599644); assay: Antibiotic potentiation activity: synergistic concentration (MITC95) with imipenem, OD600 growth; assay type: cell-based; conditions: for Klebsiella pneumoniae expressing VIM-1 (IHMA 599644) MITC95: concentration giving 95% inhibition of bacterial growth
Procedure: (§1) Antibiotic Potentiation Activity: Determination of Synergistic Concentration
(§2) The bacterial strains tested included the clinical strains Escherichia coli expressing NDM-1 (CLB30005, CLB30016), Serratia marcescens expressing IMP-1 (CL5741), and Klebsiella pneumoniae expressing VIM-1 (IHMA599644) Inhibitor activity was measured in the presence and absence of imipenem in a 384-well microplate.
(§3) The clinical strains CLB30016, CL5741 and IHMA599644 were grown on trypticase soy agar containing 5% sheep's blood. The clinical strain CLB30005 was grown on Mueller Hinton broth agar containing 8 ug/ml imipenem. The bacteria on agar plates were incubated at 35° C. with humidity overnight. The following day, individual colonies from each clinical strain were picked and resuspended in 5 ml saline to attain an OD600 of 0.14, 0.11, 0.15 and 0.13, for CLB30005, CLB30016, CL5741 and IHMA599644, respectively. These were further diluted 1:100 into 1.1×CAMHB and used to inoculate the test wells as described below.
(§4) Imipenem in 10 mM 3-(N-morpholino)propanesulfonic acid (MOPS, pH 7) was stored in single use aliquots at −80° C. […] On the day of the assay, 4 μl of antibiotic was added to 45 ul of bacteria followed by 1 μl of test compound and mixed by pipetting and with an orbital shaker. The concentration of antibiotic used in the assay was 4 μg/ml, or optionally 1 μg/ml. Microplates were covered and incubated at 35° C. for 22 hours to 24 hours. At the end of the incubation, absorbance was determined using a spectrophotometer.

[3] = tested on: Escherichia coli expressing NDM-1 (CLB30016); assay: as above; assay type: cell-based; conditions: for Escherichia coli expressing NDM-1 (CLB 30016) MITC95: concentration giving 95% inhibition of bacterial growth
Procedure: as §1, §2, §3, §4

[4] = tested on: Serratia marcescens expressing IMP-1 (CL5741); assay: as above; assay type: cell-based; conditions: for Serratia marcescens expressing IMP-1 (CL5741) MITC95: concentration giving 95% inhibition of bacterial growth
Procedure: as §1, §2, §3, §4

[5] = target: VIM-1 (Pseudomonas aeruginosa (strain ATCC 15692 / DSM 22644 / CIP 104116 / JCM 14847 / LMG 12228 / 1C / PRS 101 / PAO1), UniProt A0A0F7KYQ8); assay: Enzyme activity: determination of IC50, fluorescence assay with CCF2-FA substrate (VIM-1); assay type: biochemical
[6] = target: IMP-1 (Serratia marcescens, UniProt P52699); assay: biochemical; assay type: biochemical; conditions: read-out: IMP-1 IC50
Chain of IMP-1 (P52699 whole entry, looked up): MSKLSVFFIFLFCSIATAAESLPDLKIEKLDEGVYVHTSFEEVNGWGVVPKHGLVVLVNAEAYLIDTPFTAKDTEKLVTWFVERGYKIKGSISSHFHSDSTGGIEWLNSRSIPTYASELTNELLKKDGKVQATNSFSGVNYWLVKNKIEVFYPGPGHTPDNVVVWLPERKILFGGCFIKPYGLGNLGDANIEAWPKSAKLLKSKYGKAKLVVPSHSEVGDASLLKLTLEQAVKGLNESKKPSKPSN

[7] = fluorescence assay with CCF2-FA substrate, read-out: NDM-1 IC50
[8] = VIM-1 IC50, fluorescence assay with CCF2-FA substrate
[9] = fluorescence assay with CCF2-FA substrate
[10] = NDM-1 enzyme, CCF2-FA fluorescence assay, read-out: NDM-1 IC50
[11] = Klebsiella pneumoniae expressing VIM-1 (IHMA599644), 95% growth inhibition
[12] = Escherichia coli expressing NDM-1 (CLB30016), 95% growth inhibition
[13] = Serratia marcescens expressing IMP-1 (CL5741), 95% growth inhibition
[14] = VIM-1 IC50, VIM-1 enzyme, CCF2-FA fluorescence assay
[15] = IMP-1 enzyme, CCF2-FA fluorescence assay
[16] = NDM-1 enzyme, CCF2-FA substrate, read-out: NDM-1 IC50
[17] = Klebsiella pneumoniae IHMA599644 (VIM-1), 95% growth inhibition
[18] = (CLB30016, NDM-1), 95% growth inhibition
[19] = Serratia marcescens CL5741 (IMP-1), 95% growth inhibition
[20] = VIM-1 enzyme, CCF2-FA substrate, read-out: VIM-1 IC50
[21] = IMP-1 enzyme, CCF2-FA substrate
[22] = VIM-1 IC50, VIM-1 enzyme, CCF2-FA substrate
[23] = VIM-1 enzyme, CCF2-FA fluorescence assay, read-out: VIM-1 IC50

Chain of NDM-1 (C7C422 whole entry, looked up, species assumed): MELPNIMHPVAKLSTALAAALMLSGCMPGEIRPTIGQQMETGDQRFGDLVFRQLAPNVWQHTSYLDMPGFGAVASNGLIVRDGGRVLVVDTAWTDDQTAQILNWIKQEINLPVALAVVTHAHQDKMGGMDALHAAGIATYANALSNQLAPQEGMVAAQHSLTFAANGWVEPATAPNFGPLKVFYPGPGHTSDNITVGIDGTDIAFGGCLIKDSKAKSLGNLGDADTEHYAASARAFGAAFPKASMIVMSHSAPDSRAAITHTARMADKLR

Row | SMILES | Klebsiella pneumoniae MITC95 [2, 11] [µM] | Escherichia coli MITC95 [3, 12] [µM] | Serratia marcescens MITC95 [4, 13] [µM] | IC50 [6, 15] [nM] | IC50 [1, 16] [nM] | Klebsiella pneumoniae MITC95 [2, 17] [µM] | Escherichia coli MITC95 [3, 18] [µM] | Serratia marcescens MITC95 [4, 19] [µM] | IC50 [6, 21] [nM] | further results
1 | Nc1nc(N)c2ccc(-c3ccc(C(F)(F)F)c(S(N)(=O)=O)c3-c3nnn[nH]3)cc2n1 [Example 750, 3-(2,4-diaminoquinazolin-7-yl)-2-(1H-tetrazol-5-yl)-6-(trifluoromethyl)benzenesulfon-amide] | – | – | – | – | – | – | – | – | – | IC50 [1, 7]: 4.75 nM; Klebsiella pneumoniae MITC95 ([2]; IHMA599644 (VIM-1), 95% inhibition of bacterial growth): 3.125 µM; Escherichia coli MITC95 ([3]; CLB30016 (NDM-1), 95% inhibition of bacterial growth): 1.563 µM; Serratia marcescens MITC95 ([4]; CL5741 (IMP-1), 95% inhibition of bacterial growth): 6.25 µM; IC50 [5, 8]: 0.432 nM; IC50 [6, 9]: 21.5 nM
2 | NS(=O)(=O)c1cccc(-c2ccc(CNC3CCNC3=O)cc2)c1-c1nnn[nH]1 (stereo not drawn) [Example 388, 4′-{[(2-oxopyrrolidin-3-yl)amino]methyl}-2-(1H-tetrazol-5-yl)biphenyl-3-sulfonamide] | 200 | 1.563 | 1.563 | 48.6 | – | – | – | – | – | IC50 [1, 10]: 4.28 nM; IC50 [5, 14]: 273 nM
3 | NS(=O)(=O)c1c(C(F)(F)F)ccc(-c2ccc(N3CCNCC3)cc2)c1-c1nnn[nH]1 [Example 717, 4′-piperazin-1-yl-2-(1H-tetrazol-5-yl)-4-(trifluoromethyl)biphenyl-3-sulfonamide] | – | – | – | – | 1.64 | 3.125 | 1.563 | 3.125 | 2.62 | IC50 [5, 20]: 0.598 nM
4 | NS(=O)(=O)c1c(CC[C@H]2CC[C@H](N)CC2)ccc(-c2ccc(C3CNC3)cc2)c1-c1nnn[nH]1 [Example 599, 4-(2-((1r,4s)-4-aminocyclohexyl)ethyl)-4′-(azetidin-3-yl)-2-(1H-tetrazol-5-yl)-[1,1′-biphenyl]-3-sulfonamide] | – | – | – | – | 2.12 | 3.125 | 1.563 | 3.125 | 6.43 | IC50 [5, 22]: 5.33 nM
5 | CNCC(C)NCc1ccc(-c2cccc(S(N)(=O)=O)c2-c2nn[nH]n2)cc1 (stereo not drawn) [Example 359, 4′-({[1-methyl-2-(methylamino)ethyl]amino}methyl)-2-(2H-tetrazol-5-yl)biphenyl-3-sulfonamide] | >200 | 4.688 | 3.125 | 104 | – | – | – | – | – | IC50 [1, 10]: 13 nM; IC50 [5, 23]: 1870 nM
6 | N[C@@H]1CCCN(c2ccc(-c3ccc(C(F)(F)F)c(S(N)(=O)=O)c3-c3nnn[nH]3)cc2)C1 [Example 727, 4′-[(3R)-3-aminopiperidin-1-yl]-2-(1H-tetrazol-5-yl)-4-(trifluoromethyl)biphenyl-3-sulfonamide] | – | – | – | – | 2.13 | 25 | 3.125 | 3.125 | 1.97 | IC50 [5, 20]: 0.914 nM
7 | NC[C@H]1CC[C@@H](Cc2ccc(-c3ccc(C4CNC4)cc3)c(-c3nnn[nH]3)c2S(N)(=O)=O)CC1 [Example 602, 4-(((1s,4s)-4-(aminomethyl)cyclohexyl)methyl)-4′-(azetidin-3-yl)-2-(1H-tetrazol-5-yl)-[1,1′-biphenyl]-3-sulfonamide] | – | – | – | – | 3.95 | 1.563 | 1.563 | 3.125 | 21 | IC50 [5, 22]: 2.47 nM
8 | NS(=O)(=O)c1cccc(-c2cnc(N3CCCCC3)nc2)c1-c1nnn[nH]1 [Example 122, 3-(2-(piperidin-1-yl)pyrimidin-5-yl)-2-(1H-tetrazol-5-yl)benzenesulfonamide] | – | – | – | – | – | – | – | – | – | IC50 [1, 7]: 3.08 nM; Klebsiella pneumoniae expressing VIM-1 (IHMA 599644) MITC95 [2]: >200 µM; Escherichia coli expressing NDM-1 (CLB 30016) MITC95 [3]: 4.688 µM; Serratia marcescens expressing IMP-1 (CL5741) MITC95 [4]: 4.688 µM; IC50 ([5]; fluorescence assay with CCF2-FA substrate, read-out: VIM-1 IC50): 249 nM; IC50 [6, 9]: 63.1 nM
9 | Nc1nc2c(-c3ccc(CC4CCC4)c(S(N)(=O)=O)c3-c3nn[nH]n3)cccc2s1 [Example 535, 3-(2-Aminobenzo[d]thiazol-4-yl)-6-(cyclobutylmethyl)-2-(2H-tetrazol-5-yl)benzenesulfonamide] | – | – | – | – | 0.844 | 50 | 6.25 | 25 | 6.86 | IC50 [5, 20]: 2.71 nM
10 | CN1CCC2(CCN(c3ccc(-c4cccc(S(N)(=O)=O)c4-c4nnn[nH]4)cn3)C2)C1 (stereo not drawn) [Example 632, 3-[6-(7-methyl-2,7-diazaspiro[4.4]nonan-2-yl)-3-pyridyl]-2-(1H-tetrazol-5-yl)benzenesulfonamide] | – | – | – | – | 26.8 | 100 | 1.172 | 6.25 | 254 | IC50 [5, 20]: 482 nM
11 | NS(=O)(=O)c1cccc(C2CCn3cncc3C2)c1-c1nn[nH]n1 (stereo not drawn) [Example 178, 3-(5,6,7,8-tetrahydroimidazo[1,5-a]pyridin-7-yl)-2-(2H-tetrazol-5-yl)benzenesulfonamide] | – | – | – | – | – | – | – | – | – | IC50 [1, 7]: 28.4 nM; Klebsiella pneumoniae expressing VIM-1 (IHMA 599644) MITC95 [2]: 9.375 µM; Escherichia coli expressing NDM-1 (CLB 30016) MITC95 [3]: 0.25 µM; Serratia marcescens expressing IMP-1 (CL5741) MITC95 [4]: 12.5 µM; IC50 [5, 8]: 65.5 nM; IC50 [6, 9]: 1020 nM
12 | Nc1n[nH]c2ccc(-c3ccc(C(F)(F)F)c(S(N)(=O)=O)c3-c3nnn[nH]3)cc12 [Example 480, 3-(3-amino-1H-indazol-5-yl)-2-(1H-tetrazol-5-yl)-6-(trifluoromethyl)benzenesulfonamide] | 2.344 | 0.7813 | 0.7813 | 9.14 | – | – | – | – | – | IC50 [1, 10]: 0.871 nM; IC50 [5, 23]: 0.264 nM
13 | NS(=O)(=O)c1c(CCC2CCNCC2)ccc(-c2ccc(C3CCNCC3)cc2)c1-c1nn[nH]n1 [Example 460, 4′-(piperidin-4-yl)-4-(2-(piperidin-4-yl)ethyl)-2-(2H-tetrazol-5-yl)-[1,1′-biphenyl]-3-sulfonamide] | 1.563 | 0.5859 | 0.3906 | 16.6 | – | – | – | – | – | IC50 [1]: 3.97 nM; IC50 [5, 23]: 10.4 nM
14 | NS(=O)(=O)c1cccc(-c2ccc(CNCC3(O)CC3)cc2)c1-c1nnn[nH]1 [Example 380, 4′-({[(1-hydroxycyclopropyl)methyl]amino}methyl)-2-(1H-tetrazol-5-yl)biphenyl-3-sulfonamide] | 62.5 | 1.563 | 4.688 | 335 | – | – | – | – | – | IC50 [1, 10]: 22.2 nM; IC50 [5, 14]: 263 nM
